# Test results from patent US20260256792A1, “TREATMENT OF CHRONIC SPONTANEOUS URTICARIA BY ADMINISTERING (R)-2-[3-[4-AMINO-3-(2-FLUORO-4-PHENOXY-PHENYL)PYRAZOLO[3,4-D]PYRIMIDIN-1-YL]PIPERIDINE-1-CARBONYL]-4-METHYL-4-[4-(OXETAN-3-YL)PIPERAZIN-1-YL]PENT-2-ENENITRILE” (priority 2023, published 2026).
# System: moderate-to-severe chronic spontaneous urticaria (CSU)
# Assay: Phase 2 CSU study: urticaria activity score over 7 days (UAS7)
# Type: in vivo, human
# Settings: Omalizumab-naïve
# Excerpt: The study comprises a 12 week, randomized, double-blind, placebo-controlled, multi-center, dose-ranging efficacy and safety phase, followed by a 40 week open label extension (OLE) phase (see FIG. 1). The study consists of three phases and an optional OLE phase. […] Clinically, CSU is characterized by the spontaneous and recurrent appearance of pruritic hives. The proposed primary endpoints were the UAS7 at Week 12 in EU and EU reference countries and the ISS7 in the US. Regardless of where a participant was from, all assessments were the same. The UAS7 score is a composite score containing both the HSS7 and the ISS7. This allowed a global assessment of the two key components of urticaria: hives and itch. […] The UAS is a validated PRO measure. […] The daily UAS scores range from 0 to 6 point/day. […] Patients were to complete the UAS using the e-diary. […] The following secondary endpoints were to be analyzed using the same approach as for the primary endpoint: • Change from baseline in UAS7 at Week 4 • Change from baseline in UAS7 at Week 12 (for US and US reference countries) • Change from baseline in ISS7 at Week 12 (except US and US reference countries) • Change from baseline in HSS7 at Week 12 The following responder secondary endpoints were to be analyzed using the Cochran-Mantel-Haenszel test adjusted by region: • Proportion of participants with UAS7<6 at Week 12 • Proportion of participants with UAS7=0 at Week 12 Participants who received selected prohibited medications and/or rescue medications were to be considered as non-responders for time points after the medication usage. For other participants, all available data including those collected during the off-treatment period were to be used to determine the responder/non-responder status. Missing data were to be considered as non-responders.
smiles,measurement,setting,value
"CC(C)(C=C(C#N)C(=O)N1CCC[C@@H](n2nc(-c3ccc(Oc4ccccc4)cc3F)c3c(N)ncnc32)C1)N1CCN(C2COC2)CC1 [rilzabrutinib, (R)-2-[3-[4-amino-3-(2-fluoro-4-phenoxy-phenyl)pyrazolo[3,4-d]pyrimidin-1-yl]piperidine-1-carbonyl]-4-methyl-4-[4-(oxetan-3-yl)piperazin-1-yl]pent-2-enenitrile]","RRD (%) for rilzabrutinib vs. placebo, UAS7 = 0","400 mg BID, Week 6",7.6 %
same,"RRD (%) for rilzabrutinib vs. placebo, UAS7 ≤6","400 mg BID, Week 6",8.8 %
same,"Responder n (%), UAS7 = 0","400 mg BID, Week 6",4 (11.4) n (%)
same,"Responder n (%), UAS7 ≤6","400 mg BID, Week 6",9 (25.7) n (%)
same,"Imputed non-responder n (%), UAS7 = 0","400 mg BID, Week 7",2 (5.7) n (%)
same,"Imputed non-responder n (%), UAS7 ≤6","400 mg BID, Week 7",2 (5.7) n (%)
same,"Non-responder n (%), UAS7 = 0","400 mg BID, Week 7",31 (88.6) n (%)
same,"Non-responder n (%), UAS7 ≤6","400 mg BID, Week 7",26 (74.3) n (%)
same,"OR for rilzabrutinib vs. placebo, UAS7 = 0","400 mg BID, Week 7",4.254
same,"OR for rilzabrutinib vs. placebo, UAS7 ≤6","400 mg BID, Week 7",2.622
same,"RRD (%) for rilzabrutinib vs. placebo, UAS7 = 0","400 mg BID, Week 7",8.1 %
same,"RRD (%) for rilzabrutinib vs. placebo, UAS7 ≤6","400 mg BID, Week 7",13.6 %
same,"Responder n (%), UAS7 = 0","400 mg BID, Week 7",4 (11.4) n (%)
same,"Responder n (%), UAS7 ≤6","400 mg BID, Week 7",9 (25.7) n (%)
same,"Imputed non-responder n (%), UAS7 = 0","400 mg BID, Week 8",3 (8.6) n (%)
same,"Imputed non-responder n (%), UAS7 ≤6","400 mg BID, Week 8",3 (8.6) n (%)
same,"Non-responder n (%), UAS7 = 0","400 mg BID, Week 8",29 (82.9) n (%)
same,"Non-responder n (%), UAS7 ≤6","400 mg BID, Week 8",22 (62.9) n (%)
same,"OR for rilzabrutinib vs. placebo, UAS7 = 0","400 mg BID, Week 8",3.154
same,"OR for rilzabrutinib vs. placebo, UAS7 ≤6","400 mg BID, Week 8",2.745
same,"RRD (%) for rilzabrutinib vs. placebo, UAS7 = 0","400 mg BID, Week 8",10.7 %
same,"RRD (%) for rilzabrutinib vs. placebo, UAS7 ≤6","400 mg BID, Week 8",18.5 %
same,"Responder n (%), UAS7 = 0","400 mg BID, Week 8",6 (17.1) n (%)
same,"Responder n (%), UAS7 ≤6","400 mg BID, Week 8",13 (37.1) n (%)
same,"Imputed non-responder n (%), UAS7 = 0","400 mg BID, Week 9",7 (20.0) n (%)
same,"Imputed non-responder n (%), UAS7 ≤6","400 mg BID, Week 9",7 (20.0) n (%)
same,"Non-responder n (%), UAS7 = 0","400 mg BID, Week 9",29 (82.9) n (%)
same,"Non-responder n (%), UAS7 ≤6","400 mg BID, Week 9",25 (71.4) n (%)
same,"OR for rilzabrutinib vs. placebo, UAS7 = 0","400 mg BID, Week 9",2.249
same,"OR for rilzabrutinib vs. placebo, UAS7 ≤6","400 mg BID, Week 9",2.797
same,"RRD (%) for rilzabrutinib vs. placebo, UAS7 = 0","400 mg BID, Week 9",8.4 %
same,"RRD (%) for rilzabrutinib vs. placebo, UAS7 ≤6","400 mg BID, Week 9",15.6 %
same,"Responder n (%), UAS7 = 0","400 mg BID, Week 9",6 (17.1) n (%)
same,"Responder n (%), UAS7 ≤6","400 mg BID, Week 9",10 (28.6) n (%)
same,"Imputed non-responder n (%), UAS7 = 0","400 mg BID, Week 10",8 (22.9) n (%)
same,"Imputed non-responder n (%), UAS7 ≤6","400 mg BID, Week 10",8 (22.9) n (%)
same,"Non-responder n (%), UAS7 = 0","400 mg BID, Week 10",27 (77.1) n (%)
same,"Non-responder n (%), UAS7 ≤6","400 mg BID, Week 10",26 (74.3) n (%)
same,"OR for rilzabrutinib vs. placebo, UAS7 = 0","400 mg BID, Week 10",2.159
same,"OR for rilzabrutinib vs. placebo, UAS7 ≤6","400 mg BID, Week 10",1.923
same,"RRD (%) for rilzabrutinib vs. placebo, UAS7 = 0","400 mg BID, Week 10",10.6 %
same,"RRD (%) for rilzabrutinib vs. placebo, UAS7 ≤6","400 mg BID, Week 10",9.9 %
same,"Responder n (%), UAS7 = 0","400 mg BID, Week 10",8 (22.9) n (%)
same,"Responder n (%), UAS7 ≤6","400 mg BID, Week 10",9 (25.7) n (%)
same,"Imputed non-responder n (%), UAS7 = 0","400 mg BID, Week 11",7 (20.0) n (%)
same,"Imputed non-responder n (%), UAS7 ≤6","400 mg BID, Week 11",7 (20.0) n (%)
same,"Non-responder n (%), UAS7 = 0","400 mg BID, Week 11",30 (85.7) n (%)
same,"Non-responder n (%), UAS7 ≤6","400 mg BID, Week 11",25 (71.4) n (%)
same,"OR for rilzabrutinib vs. placebo, UAS7 = 0","400 mg BID, Week 11",2.551
same,"OR for rilzabrutinib vs. placebo, UAS7 ≤6","400 mg BID, Week 11",1.853
same,"RRD (%) for rilzabrutinib vs. placebo, UAS7 = 0","400 mg BID, Week 11",7.4 %
same,"Responder n (%), UAS7 = 0","400 mg BID, Week 11",5 (14.3) n (%)
same,"Responder n (%), UAS7 ≤6","400 mg BID, Week 11",10 (28.6) n (%)
same,"Imputed non-responder n (%), UAS7 = 0","400 mg BID, Week 12",11 (31.4) n (%)
same,"Imputed non-responder n (%), UAS7 ≤6","400 mg BID, Week 12",11 (31.4) n (%)
same,"Non-responder n (%), UAS7 = 0","400 mg BID, Week 12",30 (85.7) n (%)
same,"Non-responder n (%), UAS7 ≤6","400 mg BID, Week 12",28 (80.0) n (%)
same,"OR for rilzabrutinib vs. placebo, UAS7 = 0","400 mg BID, Week 12",1.258
same,"OR for rilzabrutinib vs. placebo, UAS7 ≤6","400 mg BID, Week 12",1.904
same,"RRD (%) for rilzabrutinib vs. placebo, UAS7 = 0","400 mg BID, Week 12",2.6 %
same,"RRD (%) for rilzabrutinib vs. placebo, UAS7 ≤6","400 mg BID, Week 12",7.9 %
same,"Responder n (%), UAS7 = 0","400 mg BID, Week 12",5 (14.3) n (%)
same,"Responder n (%), UAS7 ≤6","400 mg BID, Week 12",7 (20.0) n (%)
same,"Imputed non-responder n (%), UAS7 = 0","400 mg QPM, Week 1",0 n (%)
same,"Imputed non-responder n (%), UAS7 ≤6","400 mg QPM, Week 1",0 n (%)
same,"Non-responder n (%), UAS7 = 0","400 mg QPM, Week 1",37 (100) n (%)
